# Data as given in US20260315612A1, “Topoisomerase Inhibitors, Methods of Making, and Methods of Use Thereof” (NJ Bio, Inc., priority 2023, published 2026).
# System: SKBR-3 cell line (human breast cancer)
# Experiment: Cytotoxicity Assay (Cell titer glo, 72 h), SKBR-3
# Type: cell-based
# Conditions: for IC50: Homo sapiens, SK-BR-3, free payloads, 72 hours; for Normalized IC50 (PL IC50/DXD IC50): ratio of payload IC50 to DXD control IC50
# Description: Day 1: 2,000 cells/well were plated and incubated at 37° C. overnight.
# Day 2: Payload/ADC/vehicle control dilutions were made in respective media and added to cells. Volume added: 50 uL to each well. Starting treatment concentration was 1 mM for free payloads/1 μM for ADC's/10% for vehicle control and then diluted 10-fold down for a total of 11 treatment dilutions. Each concentration was analyzed in triplicates. Media-only wells were used as a control to calculate percent viability.
# Day 5: Cell titer glow reagent (volume: 50 uL) was added to each well, the plate was shaken for 5 mins and the luminescence was recorded. Drug Treatment Time: 72 hours. Data Analysis: Percent viability was calculated by dividing the luminescence signal obtained for each treated well by the untreated well (media-only control) and multiplying by 100. Data was next transformed using X=Log (x) and then analyzed with nonlinear regression (curve fit), Dose Response inhibition−log (inhibitor) vs response (3 parameters) using PRISM software to determine the IC50 value.
Compound,IC50 [nM],Normalized IC50 (PL IC50/DXD IC50)
CC[C@@]1(O)C(=O)OCc2c1cc1n(c2=O)Cc2c-1nc1cc(F)c(C)cc1c2Cn1cc(COC2CCCCO2)nn1 (stereo partly drawn) [Payload 1],77.8,8.67
CC[C@@]1(O)C(=O)OCc2c1cc1n(c2=O)Cc2c-1nc1cc(F)c(C)cc1c2Cn1cc(CO)nn1 [Payload 2],80.9,9.01
CC[C@@]1(O)C(=O)OCc2c1cc1n(c2=O)Cc2c-1nc1cc(F)c(C)cc1c2Cn1nncc1CO [Payload 3],107,11.97
CC[C@@]1(O)C(=O)OCc2c1cc1n(c2=O)Cc2c-1nc1cc(F)c(C)cc1c2Cn1cc(CNC(=O)OC(C)(C)C)nn1 [Payload 4],126,14.03
CC[C@@]1(O)C(=O)OCc2c1cc1n(c2=O)Cc2c-1nc1cc(F)c(C)cc1c2Cn1cc(CN)nn1 [Payload 5],81.5,18.99
CC[C@@]1(O)C(=O)OCc2c1cc1n(c2=O)Cc2c-1nc1cc(F)c(C)cc1c2Cn1cc(CNC)nn1 [Payload 6],690,94.92
CC[C@@]1(O)C(=O)OCc2c1cc1n(c2=O)Cc2c-1nc1cc(F)c(C)cc1c2Cn1cc(CNC(=O)CO)nn1 [Payload 7],1830,203.99
CC[C@@]1(O)C(=O)OCc2c1cc1n(c2=O)Cc2c-1nc1cc(F)c(C)cc1c2Cn1nncc1CN [Payload 8],16.5,1.84
CC[C@@]1(O)C(=O)OCc2c1cc1n(c2=O)Cc2c-1nc1cc(F)c(C)cc1c2Cn1nncc1CNC [Payload 9],94.6,13.01
CC[C@@]1(O)C(=O)OCc2c1cc1n(c2=O)Cc2c-1nc1cc(F)c(C)cc1c2Cn1cc(C(C)O)nn1 (stereo partly drawn) [Payload 11],194,45.22
CC[C@@]1(O)C(=O)OCc2c1cc1n(c2=O)Cc2c-1nc1cc(F)c(C)cc1c2Cn1nnc(CO)c1CO [Payload 12],374,41.69
CC[C@@]1(O)C(=O)OCc2c1cc1n(c2=O)Cc2c-1nc1cc(F)c(C)cc1c2Cn1cc(-c2ccc(N)cc2)nn1 [Payload 13],30.8,6.84
CC[C@@]1(O)C(=O)OCc2c1cc1n(c2=O)Cc2c-1nc1cc(F)c(C)cc1c2Cn1cc(-c2ccc(NC(=O)CO)cc2)nn1 [Payload 15],25.8,27.79
CC[C@@]1(O)C(=O)OCc2c1cc1n(c2=O)Cc2c-1nc1cc(F)c(C)cc1c2Cn1cc(-c2cccc(N)c2)nn1 [Payload 16],38.5,8.55
CC[C@@]1(O)C(=O)OCc2c1cc1n(c2=O)Cc2c-1nc1cc(F)c(C)cc1c2Cn1cc(-c2ccccc2N)nn1 [Payload 19],22.4,4.96
CC[C@@]1(O)C(=O)OCc2c1cc1n(c2=O)Cc2c-1nc1cc(F)c(C)cc1c2Cn1cc(CN2CCNCC2)nn1 [Payload 22],102,20.02
CC[C@@]1(O)C(=O)OCc2c1cc1n(c2=O)Cc2c-1nc1cc(F)c(C)cc1c2Cn1cc(CN2CCC(CO)CC2)nn1 [Payload 23],1250,199.52
CC[C@@]1(O)C(=O)OCc2c1cc1n(c2=O)Cc2c-1nc1cc(F)c(C)cc1c2Cn1cc(CNC(=O)CN)nn1 [Payload 32],336,21.94
CC[C@@]1(O)C(=O)OCc2c1cc1n(c2=O)Cc2c-1nc1cc(F)c(C)cc1c2Cn1cc(CN2CCCC(N)C2)nn1 (stereo partly drawn) [Payload 33],32.9,22.96
CC[C@@]1(O)C(=O)OCc2c1cc1n(c2=O)Cc2c-1nc1cc(F)c(C)cc1c2Cn1cc(CCN)nn1 [Payload 36],1010,203.63
CC[C@@]1(O)C(=O)OCc2c1cc1n(c2=O)Cc2c-1nc1cc(F)c(C)cc1c2Cn1cc(CCNC)nn1 [Payload 37],50.8,3.32
CC[C@@]1(O)C(=O)OCc2c1cc1n(c2=O)Cc2c-1nc1cc(F)c(C)cc1c2Cn1cc(CCNC(=O)CO)nn1 [Payload 38],34.6,37.23
CC[C@@]1(O)C(=O)OCc2c1cc1n(c2=O)Cc2c-1nc1cc(F)c(C)cc1c2Cn1cc(CCO)nn1 [Payload 39],4.63,0.92
CC[C@@]1(O)C(=O)OCc2c1cc1n(c2=O)Cc2c-1nc1cc(F)c(C)cc1c2Cn1cc(-c2cc(F)cnc2N)nn1 [Payload 46],3.68,0.24

Compound,IC50 [nM],Normalized IC50 (PL IC50/DXD IC50)
CC[C@@]1(O)C(=O)OCc2c1cc1n(c2=O)Cc2c-1nc1cc(F)c(C)cc1c2Cn1cc(C2(N)CC2)nn1 [Payload 47],33.2,4.86
CC[C@@]1(O)C(=O)OCc2c1cc1n(c2=O)Cc2c-1nc1cc(F)c(C)cc1c2Cn1cc(-c2cccc(N)n2)nn1 [Payload 48],40.2,–
CC[C@@]1(O)C(=O)OCc2c1cc1n(c2=O)Cc2c-1nc1cc(F)c(C)cc1c2Cn1cc(-c2cccnc2N)nn1 [Payload 49],8.14,1.30
CC[C@@]1(O)C(=O)OCc2c1cc1n(c2=O)Cc2c-1nc1cc(F)c(C)cc1c2Cn1cc(C(C)N)nn1 (stereo partly drawn) [Payload 50],18.6,3.72
CC[C@@]1(O)C(=O)OCc2c1cc1n(c2=O)Cc2c-1nc1cc(F)c(C)cc1c2Cn1cc(C(C)(C)N)nn1 [Payload 51],15.3,3.05
CC[C@@]1(O)C(=O)OCc2c1cc1n(c2=O)Cc2c-1nc1cc(F)c(C)cc1c2Cn1cc(-c2ccc(N)nc2)nn1 [Payload 52],18,2.88
CC[C@@]1(O)C(=O)OCc2c1cc1n(c2=O)Cc2c-1nc1cc(F)c(C)cc1c2Cn1cc(CCCN)nn1 [Payload 53],18,3.60
CC[C@@]1(O)C(=O)OCc2c1cc1n(c2=O)Cc2c-1nc1cc(F)c(C)cc1c2Cn1cc(CN2CCCCC2CO)nn1 (stereo partly drawn) [Payload 54],8.94,6.24
CC[C@@]1(O)C(=O)OCc2c1cc1n(c2=O)Cc2c-1nc1cc(F)c(C)cc1c2Cn1cc(COCCN)nn1 [Payload 55],25.2,17.60
CC[C@@]1(O)C(=O)OCc2c1cc1n(c2=O)Cc2c-1nc1cc(F)c(C)cc1c2Cn1cc(CN2CCCC(CO)C2)nn1 (stereo partly drawn) [Payload 56],10.1,7.05
CC[C@@]1(O)C(=O)OCc2c1cc1n(c2=O)Cc2c-1nc1cc(F)c(C)cc1c2Cn1cc(C2CCCN2)nn1 (stereo partly drawn) [Payload 57],18.3,12.80
CC[C@@]1(O)C(=O)OCc2c1cc1n(c2=O)Cc2c-1nc1cc(F)c(C)cc1c2Cn1cc(CN2CCOC(CN)C2)nn1 (stereo partly drawn) [Payload 58],30.5,23.79
CC[C@@]1(O)C(=O)OCc2c1cc1n(c2=O)Cc2c-1nc1cc(F)c(C)cc1c2Cn1cc(CCCO)nn1 [Payload 59],4.03,4.84
CC[C@@]1(O)C(=O)OCc2c1cc1n(c2=O)Cc2c-1nc1cc(F)c(C)cc1c2Cn1cc(CN2CCN(C(=O)CO)CC2)nn1 [Payload 60],284,338.2
CC[C@@]1(O)C(=O)OCc2c1cc1n(c2=O)Cc2c-1nc1cc(F)c(C)cc1c2Cn1cc(C2CCCN2C(=O)CO)nn1 (stereo partly drawn) [Payload 61],211,177.62
CC[C@@]1(O)C(=O)OCc2c1cc1n(c2=O)Cc2c-1nc1cc(F)c(C)cc1c2Cn1cc(CN2CCOC(CNC(=O)CO)C2)nn1 (stereo partly drawn) [Payload 62],2040,1714.88
CC[C@@]1(O)C(=O)OCc2c1cc1n(c2=O)Cc2c-1nc1cc(F)c(C)cc1c2Cn1cc(C2(NC(=O)CO)CC2)nn1 [Payload 63],41,44.21
CC[C@@]1(O)C(=O)OCc2c1cc1n(c2=O)Cc2c-1nc1cc(F)c(C)cc1c2Cn1cc(C(C)NC(=O)CO)nn1 (stereo partly drawn) [Payload 64],20.6,22.21
CC[C@@]1(O)C(=O)OCc2c1cc1n(c2=O)Cc2c-1nc1cc(F)c(C)cc1c2Cn1nncc1CCO [Payload 65],134,18.50
CC[C@@]1(O)C(=O)OCc2c1cc1n(c2=O)Cc2c-1nc1cc(F)c(C)cc1c2Cn1cc(-c2ccccc2NC(=O)CN)nn1 [Payload 66],54.7,3.58
CC[C@@]1(O)C(=O)OCc2c1cc1n(c2=O)Cc2c-1nc1cc(F)c(C)cc1c2Cn1cc(-c2ccc(NC(=O)CN)cc2)nn1 [Payload 67],9.15,0.60
CC[C@@]1(O)C(=O)OCc2c1cc1n(c2=O)Cc2c-1nc1cc(F)c(C)cc1c2Cn1cc(CCCNC(=O)CO)nn1 [Payload 68],17.6,19.01
CC[C@@]1(O)C(=O)OCc2c1cc1n(c2=O)Cc2c-1nc1cc(F)c(C)cc1c2Cn1cc(C(C)(C)NC(=O)CO)nn1 [Payload 69],95.8,104.13
